The source of these data is patent US10556907B2 (AbbVie Inc., priority 2015, dated 2020).

Test in all cases: Method 1: intracellular Ca2+ release (FLIPR, Calcium 5) in recombinant CHO-K1 cells
What all share (assay type): cell-based

For one assay, the target named is T1, human S1PR5 receptor (Homo sapiens, UniProt Q9H228).
T1 construct: host or cells: CHO-K1
Particulars: agonist potency, determined with method 1 (symbols A-D); read-out: S1P5 EC50 range. In short, it runs like this:
(§1)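 CHO-K1 cells co-expressing the receptor, aequorin and Gq/i5 were loaded with Calcium 5 dye 1 h at 37° C, then held 45 min at RT. Serially diluted compounds added in HBSS/20 mmol/L Hepes/2.5 mmol/L probenecid/0.1% BSA pH 7.4. FLIPR Tetra fluorescence, normalized to phospho-fingolimod, fitted for EC50.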

Another assay has as its target T2, human S1PR4 receptor (Homo sapiens, UniProt O95977).
T2 construct: host or cells: CHO-K1
T2 sequence (O95977 1-384): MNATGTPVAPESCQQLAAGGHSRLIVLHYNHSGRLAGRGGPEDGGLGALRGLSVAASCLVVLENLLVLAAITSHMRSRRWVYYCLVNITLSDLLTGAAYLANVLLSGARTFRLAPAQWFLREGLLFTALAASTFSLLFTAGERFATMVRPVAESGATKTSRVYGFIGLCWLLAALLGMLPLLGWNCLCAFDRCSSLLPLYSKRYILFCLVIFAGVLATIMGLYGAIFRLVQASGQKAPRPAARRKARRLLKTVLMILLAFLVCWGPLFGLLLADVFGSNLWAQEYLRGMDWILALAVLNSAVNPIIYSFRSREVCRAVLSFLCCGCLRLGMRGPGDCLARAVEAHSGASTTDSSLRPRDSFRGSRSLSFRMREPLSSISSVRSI
Particulars: (1): determined with method 1; read-out: S1P4 EC50. In short, it runs like this: as §1

For the next assay, the target named is T3, human S1PR1 receptor (Homo sapiens, UniProt P21453).
T3 construct: host or cells: CHO-K1
T3 sequence (P21453 whole entry): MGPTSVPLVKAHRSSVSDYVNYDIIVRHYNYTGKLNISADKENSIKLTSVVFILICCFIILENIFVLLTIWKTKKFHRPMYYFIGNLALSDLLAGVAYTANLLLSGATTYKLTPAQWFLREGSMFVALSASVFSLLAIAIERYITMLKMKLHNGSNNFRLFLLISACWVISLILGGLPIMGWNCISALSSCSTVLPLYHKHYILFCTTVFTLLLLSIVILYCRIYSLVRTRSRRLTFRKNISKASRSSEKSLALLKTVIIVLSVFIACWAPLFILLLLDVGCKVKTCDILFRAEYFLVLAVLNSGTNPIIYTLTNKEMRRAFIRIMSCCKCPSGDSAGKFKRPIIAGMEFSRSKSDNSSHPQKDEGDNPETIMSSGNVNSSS
The conditions noted are these: (1): determined with method 1; read-out: S1P1 EC50. In short, it runs like this: as §1

Structures can show the parent of a compound that is named as a salt.

T1 sequence (Q9H228 whole entry): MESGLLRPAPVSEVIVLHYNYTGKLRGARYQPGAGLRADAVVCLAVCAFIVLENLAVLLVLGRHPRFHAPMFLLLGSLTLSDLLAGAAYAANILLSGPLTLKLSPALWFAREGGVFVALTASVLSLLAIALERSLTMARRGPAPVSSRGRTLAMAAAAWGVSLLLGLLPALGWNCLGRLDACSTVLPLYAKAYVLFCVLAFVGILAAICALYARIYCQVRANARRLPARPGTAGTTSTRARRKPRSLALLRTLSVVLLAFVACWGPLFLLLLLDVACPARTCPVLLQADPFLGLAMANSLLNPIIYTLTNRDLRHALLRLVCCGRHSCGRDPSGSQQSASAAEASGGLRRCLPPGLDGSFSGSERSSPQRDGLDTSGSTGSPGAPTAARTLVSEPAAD

A word on the EC50: it is the concentration giving half of the maximal effect. For the compound `CC(CC(=O)O)CN1CCc2nc(-c3ccc(CCc4ccccc4)cc3F)ncc2C1` (stereo not drawn) [Compound 280, 4-(2-(2-fluoro-4-phenethylphenyl)-7,8-dihydropyrido[4,3-d]pyrimidin-6(5H)-yl)-3-methylbutanoic acid], the EC50 on human S1PR5 receptor was 10 to 100 nM; on human S1PR4 receptor, greater than 1000 nM; on human S1PR1 receptor, greater than 1000 nM.

As to `CC(CC(=O)O)CN1CCc2nc(-c3ccc(/C=C/c4ccc(Cl)cc4F)cc3)ncc2C1` (stereo not drawn) [Compound 282], the concentration for a half-maximal effect (EC50) at human S1PR5 receptor is 10 to 100 nM; on human S1PR4 receptor, greater than 1000 nM; at human S1PR1 receptor, greater than 1000 nM.

With `O=C(O)C1CC(N2CCc3nc(-c4ccc(OCc5ccc(Cl)cc5)cc4)ncc3C2)C1` (stereo not drawn) [Compound 287, 3-(2-(4-((4-chlorobenzyl)oxy)phenyl)-7,8-dihydropyrido[4,3-d]pyrimidin-6(5H)-yl)cyclobutanecarboxylic acid], the figures for the EC50 on human S1PR5 receptor, at human S1PR4 receptor and at human S1PR1 receptor were 100 to 1000 nM, greater than 1000 nM and greater than 1000 nM, respectively.

As to `O=C(O)C1CCC(N2CCc3nc(-c4ccc(OCc5cccc(Cl)c5)cc4)ncc3C2)C1` (stereo not drawn) [Compound 288, 3-(2-(4-((3-chlorobenzyl)oxy)phenyl)-7,8-dihydropyrido[4,3-d]pyrimidin-6(5H)-yl)cyclopentanecarboxylic acid hydrochloride], the 50% effective concentration (EC50) on human S1PR5 receptor was 100 to 1000 nM; at human S1PR4 receptor it was greater than 1000 nM; on human S1PR1 receptor, greater than 1000 nM.

Consider `CC(CC(=O)O)CN1CCc2nc(-c3ccc(OCc4cccc(F)c4)cc3F)ncc2C1` (stereo not drawn) [Compound 289, 4-[2-[2-fluoro-4-[(3-fluorophenyl)methoxy]phenyl]-7,8-dihydro-5H-pyrido[4,3-d]pyrimidin-6-yl]-3-methyl-butanoic acid 2,2,2-trifluoroacetic acid salt], for which the EC50 on human S1PR5 receptor was 100 to 1000 nM; on human S1PR4 receptor, greater than 1000 nM; on human S1PR1 receptor, greater than 1000 nM.

With `Cc1ccc(C(F)(F)F)c(COc2ccc(-c3ncc4c(n3)CCN(CC(C)CC(=O)O)C4)c(F)c2)c1` (stereo not drawn) [Compound 290, 4-[2-[2-fluoro-4-[[5-methyl-2-(trifluoromethyl)phenyl]methoxy]phenyl]-7,8-dihydro-5H-pyrido[4,3-d]pyrimidin-6-yl]-3-methyl-butanoic acid 2,2,2-trifluoroacetic acid salt], the EC50 at human S1PR5 receptor is 100 to 1000 nM; at human S1PR4 receptor, greater than 1000 nM; at human S1PR1 receptor, greater than 1000 nM.

As to `Cc1cc(-c2ncc3c(n2)CCN(CC(C)CC(=O)O)C3)ccc1CCc1ccc(Cl)cc1` (stereo not drawn) [Compound 291, 4-(2-(4-(4-chlorophenethyl)-3-methylphenyl)-7,8-dihydropyrido[4,3-d]pyrimidin-6(5H)-yl)-3-methylbutanoic acid], the figures for the concentration giving a half-maximal response (EC50) at human S1PR5 receptor, at human S1PR4 receptor and on human S1PR1 receptor were 100 to 1000 nM, greater than 1000 nM and greater than 1000 nM, respectively.

Take `CC(CC(=O)O)CN1CCc2nc(-c3ccc(CCc4cccc(Cl)c4)cc3F)ncc2C1` (stereo not drawn) [Compound 292, 4-(2-(4-(3-chlorophenethyl)-2-fluorophenyl)-7,8-dihydropyrido[4,3-d]pyrimidin-6(5H)-yl)-3-methylbutanoic acid]: the EC50 was 100 to 1000 nM on human S1PR5 receptor, greater than 1000 nM at human S1PR4 receptor and greater than 1000 nM at human S1PR1 receptor.

On to `CC(CC(=O)O)CN1CCc2nc(-c3ccc(C4CC4c4cccc(Cl)c4)cc3)ncc2C1` (stereo not drawn) [Compound 293, 4-(2-(4-(2-(3-chlorophenyl)cyclopropyl)phenyl)-7,8-dihydropyrido[4,3-d]pyrimidin-6(5H)-yl)-3-methylbutanoic acid], for which the EC50 was 100 to 1000 nM at human S1PR5 receptor, greater than 1000 nM at human S1PR4 receptor and greater than 1000 nM on human S1PR1 receptor.

Take `O=C(O)C1CCC(N2CCc3nc(-c4ccc(OCc5ccc(Cl)cc5)cc4)ncc3C2)C1` (stereo not drawn) [Compound 295, 3-(2-(4-((4-chlorobenzyl)oxy)phenyl)-7,8-dihydropyrido[4,3-d]pyrimidin-6(5H)-yl)cyclopentanecarboxylic acid]: the EC50 on human S1PR5 receptor is 100 to 1000 nM; at human S1PR4 receptor, greater than 1000 nM; at human S1PR1 receptor, greater than 1000 nM.

With `CCc1ccccc1COc1ccc(-c2ncc3c(n2)CCN(CC(C)CC(=O)O)C3)c(F)c1` (stereo not drawn) [Compound 296, 4-[2-[4-[(2-ethylphenyl)methoxy]-2-fluoro-phenyl]-7,8-dihydro-5H-pyrido[4,3-d]pyrimidin-6-yl]-3-methyl-butanoic acid 2,2,2-trifluoroacetic acid salt], the EC50 at human S1PR5 receptor was 100 to 1000 nM; at human S1PR4 receptor, greater than 1000 nM; at human S1PR1 receptor, greater than 1000 nM.

For `CC(CC(=O)O)CN1CCc2nc(-c3ccc(/C=C/c4ccc(Cl)cc4)cc3)ncc2C1` (stereo not drawn) [Compound 297, 4-(2-(4-(4-chlorostyryl)phenyl)-7,8-dihydropyrido[4,3-d]pyrimidin-6(5H)-yl)-3-methylbutanoic acid], the EC50 was 100 to 1000 nM at human S1PR5 receptor, greater than 1000 nM at human S1PR4 receptor and greater than 1000 nM on human S1PR1 receptor.

Regarding `CC(CC(=O)O)CN1CCc2nc(-c3ccc(OCc4ccc(F)cc4)cc3F)ncc2C1` (stereo not drawn) [Compound 298, 4-[2-[2-fluoro-4-[(4-fluorophenyl)methoxy]phenyl]-7,8-dihydro-5H-pyrido[4,3-d]pyrimidin-6-yl]-3-methyl-butanoic acid 2,2,2-trifluoroacetic acid salt], the figures for the concentration for a half-maximal effect (EC50) at human S1PR5 receptor, on human S1PR4 receptor and on human S1PR1 receptor were 100 to 1000 nM, greater than 1000 nM and greater than 1000 nM, respectively.

`CC(C(=O)O)N1CCc2nc(-c3ccc(OCc4cc(F)cc(F)c4)cc3)ncc2C1` (stereo not drawn) [Compound 299, 2-(2-(4-((3,5-difluorobenzyl)oxy)phenyl)-7,8-dihydropyrido[4,3-d]pyrimidin-6(5H)-yl)propanoic acid]: the values for the EC50 on human S1PR5 receptor, on human S1PR4 receptor and at human S1PR1 receptor were 100 to 1000 nM, greater than 1000 nM and greater than 1000 nM, respectively.

`Cc1cc(-c2ncc3c(n2)CCN(CC(C)CC(=O)O)C3)ccc1OCc1cccc(C)c1C` (stereo not drawn) [Compound 300, 4-[2-[4-[(2,3-dimethylphenyl)methoxy]-3-methyl-phenyl]-7,8-dihydro-5H-pyrido[4,3-d]pyrimidin-6-yl]-3-methyl-butanoic acid 2,2,2-trifluoroacetic acid salt]: the EC50 at human S1PR5 receptor was 100 to 1000 nM; at human S1PR4 receptor it was greater than 1000 nM; on human S1PR1 receptor, greater than 1000 nM.

In the case of `Cc1ccc(COc2ccc(-c3ncc4c(n3)CCN(CC(C)CC(=O)O)C4)cc2C)cc1` (stereo not drawn) [Compound 301, 3-methyl-4-[2-[3-methyl-4-(p-tolylmethoxy)phenyl]-7,8-dihydro-5H-pyrido[4,3-d]pyrimidin-6-yl]butanoic acid 2,2,2-trifluoroacetic acid salt], the concentration for a half-maximal effect (EC50) on human S1PR5 receptor is 100 to 1000 nM; on human S1PR4 receptor it was greater than 1000 nM; on human S1PR1 receptor it was greater than 1000 nM.

On to `Cc1cc(-c2ncc3c(n2)CCN(CC(C)CC(=O)O)C3)ccc1OCc1cccc(C(F)(F)F)c1` (stereo not drawn) [Compound 302, 3-methyl-4-[2-[3-methyl-4-[[3-(trifluoromethyl)phenyl]methoxy]phenyl]-7,8-dihydro-5H-pyrido[4,3-d]pyrimidin-6-yl]butanoic acid 2,2,2-trifluoroacetic acid salt], for which the EC50 on human S1PR5 receptor was 100 to 1000 nM; on human S1PR4 receptor, greater than 1000 nM; on human S1PR1 receptor it was greater than 1000 nM.

Turning to `Cc1ccccc1COc1ccc(-c2ncc3c(n2)CCN(C[C@H](C)CC(=O)O)C3)cc1C` [Compound 303], the EC50 is 100 to 1000 nM on human S1PR5 receptor, less than 1000 nM at human S1PR4 receptor and greater than 1000 nM on human S1PR1 receptor.

As for `Cc1ccc(COc2ccc(-c3ncc4c(n3)CCN(CC(C)CC(=O)O)C4)c(F)c2)c(C)c1` (stereo not drawn) [Compound 304, 4-[2-[4-[(2,4-dimethylphenyl)methoxy]-2-fluoro-phenyl]-7,8-dihydro-5H-pyrido[4,3-d]pyrimidin-6-yl]-3-methyl-butanoic acid 2,2,2-trifluoroacetic acid salt], the EC50 on human S1PR5 receptor was 100 to 1000 nM; on human S1PR4 receptor, greater than 1000 nM; on human S1PR1 receptor, greater than 1000 nM.

Take `Cc1ccc(COc2ccc(-c3ncc4c(n3)CCN(CC(C)CC(=O)O)C4)cc2C)c(C)c1` (stereo not drawn) [Compound 305, 4-[2-[4-[(2,4-dimethylphenyl)methoxy]-3-methyl-phenyl]-7,8-dihydro-5H-pyrido[4,3-d]pyrimidin-6-yl]-3-methyl-butanoic acid 2,2,2-trifluoroacetic acid salt]: the EC50 on human S1PR5 receptor is 100 to 1000 nM; on human S1PR4 receptor it was greater than 1000 nM; on human S1PR1 receptor, greater than 1000 nM.

On to `CCc1ccc(COc2ccc(-c3ncc4c(n3)CCN(CC(C)CC(=O)O)C4)cc2C)cc1` (stereo not drawn) [Compound 306, 4-[2-[4-[(4-ethylphenyl)methoxy]-3-methyl-phenyl]-7,8-dihydro-5H-pyrido[4,3-d]pyrimidin-6-yl]-3-methyl-butanoic acid 2,2,2-trifluoroacetic acid salt], for which the concentration for a half-maximal effect (EC50) on human S1PR5 receptor is 100 to 1000 nM; on human S1PR4 receptor it was greater than 1000 nM; on human S1PR1 receptor, greater than 1000 nM.

In the case of `Cc1ccc(COc2ccc(-c3ncc4c(n3)CCN(CC(C)CC(=O)O)C4)c(F)c2)cc1` (stereo not drawn) [Compound 307, 4-[2-[2-fluoro-4-(p-tolylmethoxy)phenyl]-7,8-dihydro-5H-pyrido[4,3-d]pyrimidin-6-yl]-3-methyl-butanoic acid 2,2,2-trifluoroacetic acid salt], the EC50 was 100 to 1000 nM on human S1PR5 receptor, greater than 1000 nM at human S1PR4 receptor and greater than 1000 nM at human S1PR1 receptor.
